Source: US7388014B2, “Quinazoline derivatives and therapeutic use thereof” (Rexahn Pharmaceuticals, Inc., priority 2004, dated 2008)

Legend:
[1] = tested on: MCF-7; experiment: Cell growth inhibition assay (SRB), MCF-7; assay type: cell-based, Human; conditions: MCF-7 (breast, hormone-dependent), 96 hours
Description: (§1) Cancer cells used in this study to determine the effect of quinazoline compounds were obtained from the following sources: Human OVCAR-3 (ovary), MCF-7 (breast, hormone-dependent), Hs 578T (breast), MDA-MB-231 (breast), HeLa (cervix), PC3 (prostate), HepG2 (liver), A549 (lung), Caki-1 (kidney), HT-29 (colon), HCT116 (colon) and PANC-1 (pancreas) from the American Type Culture Collection (ATCC) (Manassas, Va.); U251 (brain) from Riken (Japan); MKN-45 (stomach) from DSMZ (Germany); UMRC2 (kidney) and Lox IMVI (melanoma) from the United States National Cancer Institute (Bethesda, Md.). All cell lines except Hs 578T, MDA-MB-231, HCT116, UMRC2, Caki-1 and PANC-1 were grown in RPMI1640 medium (Invitrogen, Carlsbad, Calif.) supplemented with 10% fetal bovine serum (“FBS”), 1 mM sodium pyruvate, 10 mM HEPES and 100 U/ml penicillin and 100 μg/ml streptomycin (“P/S”). Hs 578T, MDA-MB-231, HCT116, UMRC2, Caki-1 and PANC-1 cells were maintained in Dulbecco's modified Eagle's medium (“DMEM”, Invitrogen) supplemented with 10% FBS, P/S, 10 mM HEPES and 2 mM L-glutamine. All cells were incubated at 37° C. under humidified 5% CO2.
(§2) The growth inhibition of the substituted quinazoline derivative compounds against a variety of human tumor cells was evaluated. The relative importance of particular substituent groups on the compounds was also studied. The substituted quinazoline derivative compounds, prepared as described above, were tested, along with DMSO as a control.
(§3) The growth inhibition assay of various compounds against 15 human tumor cell lines was performed using the Sulforhodamnine B (“SRB”) method (Skehan et al., J. National Cancer Institute, 82: 1107-1112 (1990)). Briefly, exponentially growing tumor cells were seeded into a 96-well plate at a density of 2-3×10^3 cells/well and treated with quinazoline compounds the next day. Triplicate wells were used for each treatment. The cells were. incubated with the various compounds for 96 hours at 37° C. in a humidified 5% CO2 atmosphere. After 96-hour incubation, cells were fixed with 10% trichloroacetic acid (“TCA”), incubated for 1 hour at 4° C., and washed 3 times with tap water. Subsequently cells were stained with 0.4% sulforhodamine B in 1% acetic acid for 30 minutes, washed 4 times with 1% acetic acid, and air-dried again. After 5 minutes agitation in 10 mM Tris solution, the absorbance of each well was measured at 530 nm using Benchmark Plus Microplate reader (Bio-Rad Laboratories, Hercules, Calif.).
(§4) To translate the OD530 values into the number of live cells in each well, the OD530 values were compared to those on standard OD530—versus—cell number curves generated for each cell line. The percent survival was calculated using the formula: % Survival=live cell number [test]/live cell number [control]×100
(§5) The IC50 values were calculated by non-linear regression analysis.

[2] = tested on: Lox IMVI; experiment: Cell growth inhibition assay (SRB), Lox IMVI; assay type: cell-based, Human; conditions: Lox IMVI (melanoma), 96 hours
Description: as §1, §2, §3, §4, §5

[3] = tested on: U251; experiment: Cell growth inhibition assay (SRB), U251; assay type: cell-based, Human; conditions: U251 (brain), 96 hours
Description: as §1, §2, §3, §4, §5

[4] = tested on: MDA-MB-231; experiment: Cell growth inhibition assay (SRB), MDA-MB-231; assay type: cell-based, Human; conditions: MDA-MB-231 (breast), 96 hours
Description: as §1, §2, §3, §4, §5

[5] = tested on: A549; experiment: Cell growth inhibition assay (SRB), A549; assay type: cell-based, Human; conditions: A549 (lung), 96 hours
Description: as §1, §2, §3, §4, §5

[6] = tested on: UMRC2; experiment: Cell growth inhibition assay (SRB), UMRC2; assay type: cell-based, Human; conditions: UMRC2 (kidney), 96 hours
Description: as §1, §2, §3, §4, §5

[7] = tested on: PANC-1; experiment: Cell growth inhibition assay (SRB), PANC-1; assay type: cell-based, Human; conditions: PANC-1 (pancreas), 96 hours
Description: as §1, §2, §3, §4, §5

[8] = tested on: HepG2; experiment: Cell growth inhibition assay (SRB), HepG2; assay type: cell-based, Human; conditions: HepG2 (liver), 96 hours, read-out: Inhibition of cell growth (IC50, μM) HepG 2
Description: as §1, §2, §3, §4, §5

[9] = tested on: MKN-45; experiment: Cell growth inhibition assay (SRB), MKN-45; assay type: cell-based, Human; conditions: MKN-45 (stomach), 96 hours
Description: as §1, §2, §3, §4, §5

[10] = tested on: OVCAR-3; experiment: Cell growth inhibition assay (SRB), OVCAR-3; assay type: cell-based, Human; conditions: OVCAR-3 (ovary), 96 hours
Description: as §1, §2, §3, §4, §5

[11] = tested on: HeLa; experiment: Cell growth inhibition assay (SRB), HeLa; assay type: cell-based, Human; conditions: HeLa (cervix), 96 hours
Description: as §1, §2, §3, §4, §5

[12] = tested on: HT-29; experiment: Cell growth inhibition assay (SRB), HT-29; assay type: cell-based, Human; conditions: HT-29 (colon), 96 hours
Description: as §1, §2, §3, §4, §5

[13] = tested on: 15 human tumor cell lines; experiment: Cell growth inhibition assay (SRB), summary over the panel of cell lines; assay type: cell-based; conditions: four of the tested cell lines
Description: Cancer cells used in this study to determine the effect of quinazoline compounds were obtained from the following sources: Human OVCAR-3 (ovary), MCF-7 (breast, hormone-dependent), Hs 578T (breast), MDA-MB-231 (breast), HeLa (cervix), PC3 (prostate), HepG2 (liver), A549 (lung), Caki-1 (kidney), HT-29 (colon), HCT116 (colon) and PANC-1 (pancreas) from the American Type Culture Collection (ATCC) (Manassas, Va.); U251 (brain) from Riken (Japan); MKN-45 (stomach) from DSMZ (Germany); UMRC2 (kidney) and Lox IMVI (melanoma) from the United States National Cancer Institute (Bethesda, Md.). […]
The growth inhibition of the substituted quinazoline derivative compounds against a variety of human tumor cells was evaluated. […]
The growth inhibition assay of various compounds against 15 human tumor cell lines was performed using the Sulforhodamnine B (“SRB”) method (Skehan et al., J. National Cancer Institute, 82: 1107-1112 (1990)). […] After 5 minutes agitation in 10 mM Tris solution, the absorbance of each well was measured at 530 nm using Benchmark Plus Microplate reader (Bio-Rad Laboratories, Hercules, Calif.). […]
The IC50 values were calculated by non-linear regression analysis. […]

[14] = tested on: PC3; experiment: Cell growth inhibition assay (SRB), PC3; assay type: cell-based, Human; conditions: PC3 (prostate), 96 hours
Description: as §1, §2, §3, §4, §5

[15] = tested on: Caki-1; experiment: Cell growth inhibition assay (SRB), Caki-1; assay type: cell-based, Human; conditions: Caki-1 (kidney), 96 hours
Description: as §1, §2, §3, §4, §5

[16] = tested on: Hs 578T; experiment: Cell growth inhibition assay (SRB), Hs 578T; assay type: cell-based, Human; conditions: Hs 578T (breast), 96 hours
Description: as §1, §2, §3, §4, §5

- IC50 [1]: 0.11 µM
- IC50 [3]: 0.13 µM
- IC50 [4]: 0.53 µM
- IC50 [5]: 0.66 µM
- IC50 [7]: > 3 µM
- IC50 [8]: 0.18 µM
- IC50 [9]: 0.1 µM
- IC50 [10]: 0.48 µM
- IC50 [11]: 1.06 µM
- IC50 [12]: 0.24 µM
- IC50 [13]: < 0.2 µM
- IC50 [14]: 1.03 µM
Structure (SMILES): CC(C)Nc1ncnc2cc3[nH]cnc3cc12 [RX-1834]
- IC50 [2]: 0.67 µM
- IC50 [6]: 2.24 µM
- IC50 [15]: 0.65 µM
- IC50 [16]: 0.79 µM
